Source: patent US20090209535A1, “6-ETHER/THIOETHER-PURINES AS TOPOISOMERASE II CATALYTIC INHIBITORS AND THEIR USE IN THERAPY” (TOPOTARGET A/S, priority 2005, published 2009)
Counter-ions that a name gives are not always drawn. Like-named read-outs stand apart in the source and are kept apart here.

Key:
[1] = molecular target: T1, wild-type human topoisomerase II α (Homo sapiens, UniProt P11388); test: Topoisomerase II DNA strand passage assay (kDNA decatenation), wild-type enzyme; assay type: biochemical; settings: for inhibition of DNA strand passage (decatenation) activity, in words: wild-type enzyme, FIG. 2-A and FIG. 5
T1 construct: made in house; host or cells: yeast (over-expressing yeast cells)
T1 sequence (P11388 whole entry): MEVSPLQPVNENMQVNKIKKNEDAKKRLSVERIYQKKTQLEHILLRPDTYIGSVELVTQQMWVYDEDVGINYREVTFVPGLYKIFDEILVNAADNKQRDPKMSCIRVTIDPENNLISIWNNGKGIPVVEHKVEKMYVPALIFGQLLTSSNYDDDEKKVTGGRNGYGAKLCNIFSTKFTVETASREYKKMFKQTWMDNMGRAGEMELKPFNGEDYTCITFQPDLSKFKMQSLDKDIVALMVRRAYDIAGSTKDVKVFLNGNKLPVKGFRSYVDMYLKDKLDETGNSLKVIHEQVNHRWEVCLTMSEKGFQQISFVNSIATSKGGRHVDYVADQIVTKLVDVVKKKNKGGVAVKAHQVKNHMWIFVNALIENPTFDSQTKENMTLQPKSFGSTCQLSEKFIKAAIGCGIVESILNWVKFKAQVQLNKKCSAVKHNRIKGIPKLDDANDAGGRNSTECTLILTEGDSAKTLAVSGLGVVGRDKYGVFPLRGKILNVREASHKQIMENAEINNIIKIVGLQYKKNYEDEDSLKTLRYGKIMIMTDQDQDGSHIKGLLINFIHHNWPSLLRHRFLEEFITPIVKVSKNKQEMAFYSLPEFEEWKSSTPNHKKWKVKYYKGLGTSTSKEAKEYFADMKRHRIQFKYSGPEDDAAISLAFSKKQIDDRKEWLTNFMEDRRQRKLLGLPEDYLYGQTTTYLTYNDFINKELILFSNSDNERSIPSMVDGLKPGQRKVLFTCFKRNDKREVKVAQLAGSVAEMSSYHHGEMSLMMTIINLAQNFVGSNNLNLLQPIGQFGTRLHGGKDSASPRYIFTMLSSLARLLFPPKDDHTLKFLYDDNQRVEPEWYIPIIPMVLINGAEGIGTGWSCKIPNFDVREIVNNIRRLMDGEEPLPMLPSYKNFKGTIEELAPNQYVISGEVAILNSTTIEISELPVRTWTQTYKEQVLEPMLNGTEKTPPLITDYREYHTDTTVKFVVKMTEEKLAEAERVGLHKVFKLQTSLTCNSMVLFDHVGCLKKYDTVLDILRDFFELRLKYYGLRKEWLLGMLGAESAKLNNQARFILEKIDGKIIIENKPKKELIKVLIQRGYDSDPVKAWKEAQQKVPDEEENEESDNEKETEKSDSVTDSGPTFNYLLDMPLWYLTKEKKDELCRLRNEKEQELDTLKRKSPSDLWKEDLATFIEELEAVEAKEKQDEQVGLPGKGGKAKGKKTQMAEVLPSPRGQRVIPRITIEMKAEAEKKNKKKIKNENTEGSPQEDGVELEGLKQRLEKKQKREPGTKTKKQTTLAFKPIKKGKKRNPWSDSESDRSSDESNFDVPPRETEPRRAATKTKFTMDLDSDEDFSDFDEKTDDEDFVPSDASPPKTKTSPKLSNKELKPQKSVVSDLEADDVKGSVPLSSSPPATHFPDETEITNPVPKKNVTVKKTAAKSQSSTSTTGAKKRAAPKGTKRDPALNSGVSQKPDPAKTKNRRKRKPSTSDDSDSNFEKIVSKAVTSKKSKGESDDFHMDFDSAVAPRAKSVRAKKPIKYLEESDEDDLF
Method: Topoisomerase II catalytic activity (DNA strand passage activity) was measured by using a filter-based kDNA decatenation assay as described in Jensen et al., 2002. Briefly, 200 ng ^3H labelled kDNA isolated from C. fasciculata was incubated with increasing concentrations of drug in 20 μL reaction buffer containing 10 mM TRIS-HCl pH 7.7, 50 mM NaCl, 50 mM KCl, 5 mM MgCl2, 1 mM EDTA, 15 μg/mL BSA and 1 mM ATP using two units of purified wild-type or Y165S mutant topoisomerase II α for 20 minutes at 37° C. (where one unit of activity is defined as the amount of enzyme required for complete decatenation in the absence of drug). After addition of 5× stop buffer (5% Sarkosyl, 0.0025% bromophenol blue, and 50% glycerol), unprocessed kDNA network and decatenated DNA mini-circles were separated by filtering, and the amount of unprocessed kDNA in each reaction was determined by scintillation counting.
FIG. 2 describes the results of studies of the inhibition of topoisomerase II DNA strand passage activity by increasing concentrations of NSC 35866. Inhibition of human topoisomerase II α DNA strand passage activity was assessed by decatenation of tritium-labelled Crithidia fasiculata kDNA using a filter-based assay to separate unprocessed kDNA network from decatenated mini-circles. […] Error bars represent SEM of three independent experiments in panel A and two independent experiments in panel B.
Inhibition of human topoisomerase II α DNA strand passage activity was determined by decatenation of tritium labelled Crithidia fasiculata kDNA as described for FIG. 2. Error bars represent SEM of 3 or 4 independent experiments.

human SCLC OC—NYH cells [2] = test: Clonogenic assay, antagonism of etoposide-induced cytotoxicity; assay type: cell-based
Method: Cells were then plated in 0.3% agar in 6 cm petri dishes with sheep red blood cells as feeder layer in triplicate, and were incubated under the same conditions as described above. Plates were counted after 3 weeks.
20 μM etoposide was then added, and the cells were incubated for one hour. Next, the drugs were washed out and the cells were plated and counted after three weeks as described herein.

topoisomerase II α = topoisomerase II α (Homo sapiens, UniProt P11388); test: Topoisomerase II ATPase assay (coupled, NADH oxidation); assay type: biochemical; design: made in house; host or cells: yeast (over-expressing yeast cells); settings: for inhibition of ATPase activity in the presence of DTT, in words: 10 mM DTT in the reaction buffer
Chain of topoisomerase II α (P11388 whole entry): as above
Method: The reaction was monitored spectrophotometrically at 340 nm using a Bio-Tek EL808 Ultra Micro plate Reader connected to a computer with KC4 Software installed (Bio-Tek Instruments, U.S.). The change in absorbance was related to ADP production using A340^1M=6220 cm^−1. […] The rate of ATP hydrolysis, V, was determined from the linear part of the curve.
The steady-state rate of ATP hydrolysis was determined using a coupled ATPase assay as described herein. […] Error bars represent SEM of two independent experiments each performed in duplicate.
The steady-state rate of ATP hydrolysis was determined as described in for FIG. 3 and as described herein. In this analysis, the rate of ATP hydrolysis in the absence of drug was set to one in all experiments. Error bars represent SEM of 2 or 3 independent experiments each preformed in duplicate.

[3] = molecular target: T2, human topoisomerase II α-DNA covalent complexes (Homo sapiens, UniProt P11388); test: Topoisomerase II DNA cleavage assay (phenol-chloroform extraction, Δcpm); assay type: biochemical
T2 construct: made in house; host or cells: yeast (over-expressing yeast cells)
T2 sequence (P11388 whole entry, one chain of several): as the sequence (P11388 whole entry) above
Description: In order to determine the ability of NSC 35866 to increase the level of topoisomerase II-DNA covalent complexes on DNA in vitro, a new and highly sensitive topoisomerase II DNA cleavage assay having a numeric readout was developed. […] The DNA substrate is a 950 bp linear ^3H-labelled DNA synthesized by PCR in the presence of ^3H-dATP. […] The DNA fragment was isolated from unincorporated dNTPs by ethanol precipitation at 0.3 M NaCl, followed by washing in 70% ethanol. The specific activity of the fragment was typically 10,000-20,000 cpm/μg. Before starting the assay, a drug dilution series comprising 10× the final drug concentration was made. Reaction mixtures containing 100 ng of the 950 bp linear ^3H-labelled DNA, 300 ng human topoisomerase II q, topoisomerase II cleavage buffer (10 mM TRIS-HCL pH 7.9, 50 mM NaCl, 50 mM KCl, 5 mM MgCl2, 1 mM EDTA, 15 μg/mL BSA and 1 mM Na2ATP), and increasing concentrations of drug in 50 μL reaction volumes were then incubated 10 minutes at 37° C. A “no topoisomerase II” sample and a “no drug” sample were always included as controls. Next, the cleavable complex was trapped by adding 5 μL 10% SDS. After vigorous vortexing, 45 uL TE buffer, pH=8.0, was added to obtain 100 μL per sample. 100 μL phenol:chloroform:isoamyl alcohol (25:24:1) equilibrated with TE buffer, pH=8.0, was then added, and the samples were vortexed vigorously for 30 seconds. Finally, the samples were centrifuged at 20,000 g for 2 minutes and 90 μL of the upper water phase was used for scintillation counting using 15 mL of Ultima gold scintillation fluid (Packard).
In order to establish whether NSC 35866 inhibits the DNA strand passage reaction of topoisomerase II by stabilising a covalent reaction intermediate, a new and highly sensitive topoisomerase II DNA cleavage assay having a numeric read-out was developed. This assay is based on the fact that after extraction with phenol-chloroform, protein-bound DNA is removed from the water phase, while naked DNA remains in the water phase. […] Consequently, in reactions containing topoisomerase II and linear DNA, the ability of compounds to remove DNA from the water phase after phenol-chloroform extraction should reflect their potency as topoisomerase II poisons. This assay was first validated by incubating 100 ng of a linear 950 bp PCR DNA fragment with 300 ng of purified human topoisomerase II α in the presence of increasing concentrations of the etoposide and m-AMSA. The DNA fragment was ^3H labelled by performing PCR in the presence of ^3H-dATP. In these experiments, a “no topoisomerase II” sample was always included to determine the level of radioactivity (DNA) retained in the water-phase when no enzyme is present. Within each experiment, the CPM values retained in the water phase in the topoisomerase II reactions were then subtracted from this background CPM value to give Δcpm. Consequently, the Δcpm values of samples with no drug added represent the background level of topoisomerase II-DNA covalent complexes present in the reaction mixture under the assay conditions, while the Δcpm levels in the presence of drugs represent the levels of poison-induced topoisomerase II-DNA covalent complexes.

human SCLC OC—NYH cells [4] = test: Alkaline elution assay (DNA breaks); assay type: cell-based; settings: 3 μM
Method: Alkaline elution assay was performed as described in Kohn et al., 1976 with modifications as described in Sehested et al., 1998. Briefly, to assess the ability of NSC 35866 to protect against etoposide-induced DNA breaks, cells were incubated with increasing concentrations of NSC 35866 for 10 minutes, before 3 μM etoposide was added to the samples. The cells were then co-incubated with 3 μM etoposide along with the same concentrations of NSC 35866 for 60 minutes. Some samples contained no etoposide in order to assess whether NSC 35866 induced DNA breaks by itself. After incubation with drug, cells were lysed and the DNA fragments eluted. DNA in the experimental OC—NYH cells was metabolically labelled by ^14C-thymidine incorporation while DNA in the internal control L1210 cells was metabolically labelled by ^3H-thymidine incorporation.
FIG. 9 describes the results of studies of the ability of NSC 35866 to antagonise DNA breaks induced by etoposide in human SCLC OC—NYH cells in a dose dependent manner. Alkaline DNA elution was used to detect DNA fragmentation induced by 3 μM etoposide in the presence of increasing concentrations of NSC 35866 as described herein. H202 treated mouse leukemic L1210 cells were used as internal control for DNA fragmentation. The DNA of the experimental OC—NYH cells was ^14C-labelled while the DNA of the L1210 cells was 3H-labelled.

[5] = in the presence of DNA (DNA-stimulated), read-out: IC50, inhibition of ATPase activity
[6] = measured in the absence of DTT, read-out: IC50

For `S=c1[nH]c(=S)c2[nH]cnc2[nH]1` [2,6-dithiopurine], the “inhibition of DNA strand passage (decatenation) activity, in words” value (shortened to “inhibition of DNA strand passage … in words”) [1] was “an effect between that of the two 6-substituted thiopurines”, the “effect on the level of etoposide-induced cytotoxicity, in words” value (shortened to “effect on the level”) (human SCLC OC—NYH cells [2]; concentrations up to 30 μM) was “no detectable effect” and the IC50 (topoisomerase II α; [5]) was roughly 3 µM.
For `Sc1ncc2nc[nH]c2n1` [2-thiopurine], the “inhibition of DNA strand passage … in words” value [1] was “virtually no effect”, the “effect on the level” value (human SCLC OC—NYH cells [2]; concentrations up to 30 μM) was “no detectable effect” and the IC50 (topoisomerase II α; [5]) was roughly 3 µM.
In the case of `Nc1nc(Cl)c2nc[nH]c2n1` [6-chloroguanine, reference compound], the “inhibitory effect on ATPase reaction, in words” value (shortened to “inhibitory effect”) (topoisomerase II α; concentration not given) is reported as “no inhibitory effect”.
In the case of `CSc1nc(N)nc2nc[nH]c12` [6-methylthioguanine], the “inhibition of DNA strand passage … in words” value [1] is reported as “almost no inhibition of decatenation activity”, the “effect on the level” value (human SCLC OC—NYH cells [2]; concentrations up to 500 μM) is reported as “no detectable effect” and the “inhibitory effect” value (topoisomerase II α; concentration not given) is reported as “capable of inhibiting topoisomerase II ATPase activity”.
`Nc1nc2nc[nH]c2c(=S)[nH]1` [6-thioguanine, reference compound] showed an IC50 ([1]; FIG. 5, read-out: half-maximal inhibition of DNA strand passage activity) of roughly 50 µM and an IC50 (topoisomerase II α; [5]) of roughly 30 µM.
`Sc1ncnc2nc[nH]c12` [6-thiopurine] was tested, and the “concentration at which maximal inhibition of DNA strand passage activity is reached” value ([1]; FIG. 5) was greater than 1000 µM, the “effect on the level” value (human SCLC OC—NYH cells [2]; concentrations up to 300 μM) was “no detectable effect” and the IC50 (topoisomerase II α; [5]) was roughly 100 µM.
With `Nc1nc2c(ncn2Cc2ccccc2)c(=O)[nH]1` [9-benzylguanine, reference compound] the “inhibitory effect” value (topoisomerase II α; concentrations up to 300 μM) was “no inhibitory effect”.
`Nc1nc(SCc2ccccc2)c2[nH]cnc2n1` [NSC15747] gave an IC50 (topoisomerase II α; [6]) of 13.4 µM.
With `CCCCCSc1nc(N)nc2[nH]cnc12` [NSC35862] the IC50 (topoisomerase II α; [6]) was 85.4 µM.
For `Nc1nc(SCc2ccc(F)cc2)c2nc[nH]c2n1` [NSC35865], the IC50 (topoisomerase II α; [6]) was 53.6 µM.
`Nc1nc(SC/C=C/c2ccccc2)c2nc[nH]c2n1` [NSC36824] showed an IC50 (topoisomerase II α; [6]) of 68.9 µM.
In the case of `CNc1ncnc(Sc2nc(N)nc3[nH]cnc23)c1[N+](=O)[O-]` [NSC38732], the IC50 (topoisomerase II α; [6]) is reported as 34.1 µM.
`Nc1nc(SCCCc2ccccc2)c2nc[nH]c2n1` [NSC39328] showed an IC50 (topoisomerase II α; [6]) of 151 µM.
`N#CCSc1nc(N)nc2[nH]cnc12` [NSC39331] gave an IC50 (topoisomerase II α; [6]) of 19 µM.
For `CCn1c(C)nc([N+](=O)[O-])c1Sc1nc(N)nc2[nH]cnc12` [NSC42375], the IC50 (topoisomerase II α; [6]) was 7.87 µM.
For `Cc1ccc(CSc2nc(N)nc3[nH]cnc23)cc1` [NSC46384], the IC50 (topoisomerase II α; [6]) was 14.1 µM.
Work on `CSc1nc(Cl)c(Br)c(Sc2nc(N)nc3[nH]cnc23)n1` [NSC52383] yielded an IC50 (topoisomerase II α; [6]) of 12.7 µM.
Work on `CCSc1nc(N)c(Br)c(Sc2nc(N)nc3[nH]cnc23)n1` [NSC52388] yielded an IC50 (topoisomerase II α; [6]) of 36.4 µM.
Work on `Cn1cnc([N+](=O)[O-])c1Sc1nc(N)nc2c1ncn2C1CC(O)C(CO)O1` (stereo not shown) [NSC172614] yielded an IC50 (topoisomerase II α; [6]) of 121 µM.
Work on `CCOC(=O)c1cc([N+](=O)[O-])c(Sc2ncnc3[nH]cnc23)c([N+](=O)[O-])c1` [NSC244708] yielded an IC50 (topoisomerase II α; [6]) of 2.74 µM.
In the case of `Nc1nc(Sc2cc([N+](=O)[O-])c3nonc3c2)c2ncn(C3OC(CO)C(O)C3O)c2n1` (stereo not shown) [NSC348400], the IC50 (topoisomerase II α; [6]) is reported as 0.389 µM.
`Nc1nc(Sc2ccc([N+](=O)[O-])c3nonc23)c2[nH]cnc2n1` [NSC348401] gave an IC50 (topoisomerase II α; [6]) of 0.372 µM.
In the case of `O=[N+]([O-])c1ccc(Sc2ncnc3[nH]cnc23)c2nonc12` [NSC348402], the IC50 (topoisomerase II α; [6]) is reported as 0.777 µM.
`CC(=O)OCSc1ncnc2c1ncn2CN1CCOCC1` [NSC647471] was tested, and the IC50 (topoisomerase II α; [6]) was 119 µM.
`Nc1nc(OCC2CCCCC2)c2nc[nH]c2n1` [NU 2058, O^6-cyclohexylmethylguanine] was tested, and the “inhibition of ATPase activity in the presence of DTT, in words” value (topoisomerase II α) was “could inhibit ATPase activity” and the IC50 (topoisomerase II α; [5]) was 300 µM.
In the case of `Nc1nc(OCc2ccccc2)c2nc[nH]c2n1` [O^6-benzylguanine], the “inhibition of ATPase activity in the presence of DTT, in words” value (topoisomerase II α) is reported as “could inhibit ATPase activity” and the IC50 (topoisomerase II α; [5]) is reported as 1000 µM.
With `COc1nc(N)nc2nc[nH]c12` [O^6-methylguanine, reference compound] the “inhibitory effect” value (topoisomerase II α; concentrations up to 300 μM) was “no detectable inhibitory effect”.
In the case of `Nc1nc2c(ncn2COCCO)c(=O)[nH]1` [acyclovir, 9-[(2-hydroxyethoxy)methyl]guanine, reference compound], the “inhibitory effect” value (topoisomerase II α; concentrations up to 300 μM) is reported as “no inhibitory effect”.
`Cn1cnc([N+](=O)[O-])c1Sc1ncnc2nc[nH]c12` [azathioprine, 6-(1-methyl-4-nitroimidazol-5-yl)thiopurine, reference compound] was tested, and the “effect on the level” value (human SCLC OC—NYH cells [2]; concentrations up to 500 μM) was “no detectable effect” and the “inhibitory effect” value (topoisomerase II α; concentration not given) was “capable of inhibiting topoisomerase II ATPase activity”.
For `COc1cc([C@@H]2c3cc4c(cc3[C@@H](O[C@@H]3O[C@@H]5CO[C@@H](C)O[C@H]5[C@H](O)[C@H]3O)[C@H]3COC(=O)[C@H]23)OCO4)cc(OC)c1O` [etoposide, 4′-demethylepipodophyllotoxin 9-(4,6-O-ethylidene-b-D-glucopyranoside)], the “effect on Δcpm with increasing concentrations, in words” value ([3]; ATP omitted from the reaction) was “no detectable increase in Δcpm”, the “increase of the level of covalent complex formation, factor” value ([3]; etoposide up to 40 μM, with ATP) was 6 and the “effect on Δcpm with increasing concentrations, in words” value ([3]; with ATP, FIG. 6) was “increase Δcpm in a dose-dependent manner”. The “DNA fragmentation by the drug alone, in words” value (human SCLC OC—NYH cells [4]) was “extensive fragmentation of DNA”.
In the case of `COc1cc(NS(C)(=O)=O)ccc1Nc1c2ccccc2nc2ccccc12` [m-AMSA, methanesulfone-m-anisidine-4′-[(9-acridinyl)amino] hydrochloride], the “effect on Δcpm with increasing concentrations, in words” value ([3]; with ATP, FIG. 6) is reported as “increase Δcpm in a dose-dependent manner”.
